Experimental data from paper PMC9979163, “Discovery and functional characterization of N-(thiazol-2-yl)-benzamide analogs as the first class of selective antagonists of the Zinc-Activated Channel (ZAC)” (Biochemical pharmacology, 2021).
pIC50: −log10 of the molar value.

Target: T1, ZAC (Homo sapiens, UniProt Q401N2)
T1 sequence (Q401N2 26-412): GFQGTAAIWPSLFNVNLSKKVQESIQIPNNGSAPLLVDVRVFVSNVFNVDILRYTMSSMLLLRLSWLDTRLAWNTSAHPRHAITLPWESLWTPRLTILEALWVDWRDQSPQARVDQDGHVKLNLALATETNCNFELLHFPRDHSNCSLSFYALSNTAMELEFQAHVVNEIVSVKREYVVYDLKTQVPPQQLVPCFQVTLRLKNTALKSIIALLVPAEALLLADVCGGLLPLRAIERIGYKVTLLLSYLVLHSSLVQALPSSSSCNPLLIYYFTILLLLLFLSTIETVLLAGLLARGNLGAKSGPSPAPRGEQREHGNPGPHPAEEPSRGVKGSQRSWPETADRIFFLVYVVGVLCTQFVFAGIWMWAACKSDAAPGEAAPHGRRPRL
Assay: TEVC recordings, Zn2+-evoked currents at ZAC expressed in Xenopus oocytes
Format: cell-based
Settings: 1 mM Zn2+ as agonist, tested at three concentrations (0.3-3-30 μM or 1-10-100 μM)
Description: The cDNAs for the various WT and chimeric CLR subunits were linearized and subsequently transcribed and capped mMessage mMachine T7 RNA transcription kit (Ambion, Waltham, MA). Different amounts of cRNA mixtures were injected for ZAC (9.2–36.8 nL in a concentration of 0.05 μg/μL), […] nAChR (9.2–36.8 nL in a concentration of 0.1 μg/μL of each subunit in a ratio of 1:1), hα1 GlyR (9.2–36.8 nL in a concentration of 0.05 μg/μL), hα1β2γ2s GABAAR (9.2–36.8 nL in a concentration of 0.05 μg/μL of each subunit in a ratio of 1:1:3), m5-HT3AR (9.2–36.8 nL in a concentration of 0.05 μg/μL), m5-HT3A/ZAC (9.2–36.8 nL in a concentration of 0.207 μg/μL), and ZAC/hai-Gly (9.2–36.8 nL in a concentration of 0.206 μg/μL). Oocytes were incubated in a sterile modified Barth’s solution [88 mM NaCl, 1 mM KCl, 15 mM HEPES (pH 7.5), 2.4 mM NaHCO3, 0.41 mM CaCl2, 0.82 mM MgSO4, 0.3 mM Ca(NO3)2, 100 U/ml penicillin and 100 μg/ml strep-tomycin] at 18 °C for 2 days after injection.
On the day of experiment, all compound dilutions were prepared in a saline solution [115 mM NaCl, 2.5 mM KCl, 10 mM MOPS (pH 7.5), 1.8 mM CaCl2, 0.1 mM MgCl2] and pH adjusted to 7.5 (if needed). Oocytes were placed in a recording chamber continuously perfused with this saline solution, and the compounds were applied in the perfusate. Both voltage and current electrodes were agar-plugged with 3 M KCl with a resistance of 0.2–2.0 MΩ. Oocytes were voltage-clamped at −50 mV (unless otherwise stated) by a Gene Clamp 500B amplifier (Axon Instruments, Union City, CA), while current signals were digitized by a Digidata 1320. Currents were recorded using pCLAMP 10 (Molecular Devices, Sunnyvale, CA). The recordings were performed at room temperature.
In all recordings, the compounds or compound combinations were applied in the bath until the peak current decayed to a steady state (up to 30 sec at the most). […] The functional properties of the modulators at the CLRs were determined by pre-application of the modulator to the perfusate 30 sec and followed by co-application of the modulator and the agonist to the perfusate. In all recordings, washes of 1–5 min were executed between the applications to prevent receptor desensitization, the duration of these washes depending on the kinetics of the respective receptors and the “stickyness” of the respective compounds. […] For the selectivity and mode-of-action studies, the agonist concentrations used for different CLRs or chimeric CLRs were in the EC20–EC40 range (verified on the day of experiment), as this enabled us to investigate both for putative positive and negative receptor modulation exerted by TTFB (hα3β4 nAChR, 3 μM (S)-nicotine; m5-HT3AR, 2 μM 5-HT; hα1 GlyR, 100 μM glycine; hα1β2γ2S GABAAR, 30 μM GABA; m5-HT3A/ZAC, 0.3 μM 5-HT; ZAC/hɑ1-Gly, 2 μM Zn^2+).
Data analysis of the results from the TEVC recordings were performed using Clampfit software version 10.5 (Molecular Devices, Crawley, UK) and GraphPad Prism version 7.0c (GraphPad Software, Inc. La Jolla, CA). Data for the test compounds were normalized to either the maximal agonist-evoked current or to an EC20–EC50-mediated response elicited by the agonist on each oocyte (specified in each case). Unless otherwise stated, data for agonist-induced responses in the presence of the antagonists were extracted from the plateau (or steady-state) of the agonist-evoked current. Concentration-response and concentration-inhibition curves were fitted in GraphPad Prism by nonlinear regression using the equation for sigmoidal dose-response with variable slope. I-V relationships were analyzed by fitting the curves with a third order polynomial model. Each data point represents the mean ± S.E.M. value of recordings performed on at least five oocytes from at least two different batches.

Compound	Antagonist activity at ZAC in SAR study (in words)
Cc1cnc(NC(=O)c2cc(Br)ccc2Cl)s1 [2a]	inactivity
CC(C)(C)c1csc(NC(=O)c2cc(Br)ccc2Cl)n1 [2b]	slightly more potent and efficacious ZAC inhibition than 1
CCOC(=O)Cc1csc(NC(=O)c2cc(Br)ccc2Cl)n1 [2c]	slightly more potent and efficacious ZAC inhibition than 1
Cc1ccc(-c2csc(NC(=O)c3cc(Br)ccc3Cl)n2)cc1 [2d]	reduced substantially
O=C(Nc1nc2ccccc2s1)c1cc(Br)ccc1Cl [2e]	substantial loss of activity
O=C(Nc1nnc(C2CCCCC2)s1)c1cc(Br)ccc1Cl [2f]	substantial loss of activity
CCc1nc(NC(=O)c2cccc(Br)c2)sc1C(=O)OC [3a]	inactive
CCOC(=O)c1sc(NC(=O)c2cccc(Br)c2)nc1C [3b]	inactive
Cc1csc(NC(=O)c2cccc(Br)c2)n1 [3c]	weak ZAC activity
CC(C)(C)c1csc(NC(=O)c2cccc(Br)c2)n1 [3d]	fairly potent
O=C(Nc1nc(-c2ccc(Br)s2)cs1)c1cccc(Br)c1 [3e]	eliminated ZAC activity completely
O=C(Nc1ncc([N+](=O)[O-])s1)c1cccc(Br)c1 [3f]	weaker antagonists
Cc1nc(NC(=O)c2cccc(Br)c2)sc1C [3g]	considerably weaker antagonist
CC(C)(C)c1nnc(NC(=O)c2cccc(Br)c2)s1 [3k]	essentially eliminated ZAC activity
COC(=O)c1sc(NC(=O)c2ccccc2C)nc1C [4a]	essentially inactive
COC(=O)c1sc(NC(=O)c2ccc(C)cc2)nc1C [4b]	essentially inactive
COC(=O)c1sc(NC(=O)c2cccc(I)c2)nc1C [4c]	did not alter its antagonist activity substantially
COC(=O)c1sc(NC(=O)c2cc(C)cc(C)c2)nc1C [4d]	did not alter its antagonist activity substantially
COC(=O)c1sc(NC(=O)c2cc([N+](=O)[O-])cc([N+](=O)[O-])c2)nc1C [4e]	completely devoid of antagonist activity
COC(=O)c1sc(NC(=O)c2cc([N+](=O)[O-])ccc2Cl)nc1C [4f]	inactive

Compound	Antagonist activity at ZAC in SAR study (in words)
CCOc1ccc(C(=O)Nc2nc(C)c(C(=O)OC)s2)cc1Br [4g]	inactive
COC(=O)c1sc(NC(=O)c2ccncc2)nc1C [4h]	inactive
CCOC(=O)c1sc(NC(=O)c2ccccc2Cl)nc1C [4i]	inactive
CCOC(=O)c1sc(NC(=O)c2cc(Cl)cc(Cl)c2)nc1C [4j]	inactive
CCOC(=O)c1sc(NC(=O)c2cc(Cl)ccc2OC)nc1C [4k]	inactive
CCOC(=O)c1sc(NC(=O)c2cc(OC)c(OC)c(OC)c2)nc1C [4l]	essentially inactive
C=CCN(CC=C)S(=O)(=O)c1ccc(C(=O)Nc2nc(C)c(C(=O)OCC)s2)cc1 [4m]	inactive
CCOC(=O)c1sc(NC(=O)c2cccnc2)nc1C [4n]	inactive
CCOC(=O)c1sc(NC(=O)c2ccco2)nc1C [4o]	inactive
CC(C)(C)c1csc(NC(=O)c2c(F)c(F)c(F)c(F)c2F)n1 [5b]	considerably weaker ZAC antagonist
CN(C)c1cccc(C(=O)Nc2nc(C(C)(C)C)cs2)c1 [5f]	roughly equipotent with 2b
COc1ccc(Cl)cc1C(=O)Nc1nc(C(C)(C)C)cs1 [5g]	somewhat potent but apparent partial inhibition
CC(C)(C)c1csc(NC(=O)c2cc(F)c(F)cc2Cl)n1 [5h]	lower potency as ZAC antagonist than 2b
COc1cc(C(=O)Nc2nc(C(C)(C)C)cs2)cc(OC)c1OC [5i]	essentially inactive
O=C(Nc1nccs1)c1cc(F)c(F)cc1Cl [6a]	inactivity
Cc1cnc(NC(=O)c2cc(F)c(F)cc2Cl)s1 [6b]	inactivity
CC(=O)c1sc(NC(=O)c2cc(F)c(F)cc2Cl)nc1C [6c]	inactivity
CCOC(=O)Cc1csc(NC(=O)c2cc(Cl)cc(Cl)c2)n1 [6g]	inactivity
CN(C)c1cccc(C(=O)Nc2nc(C3CC3)cs2)c1 [6l]	decreased antagonist potency
CC(C)c1csc(NC(=O)c2cccc(Nc3ncccn3)c2)n1 [6m]	further reduced ZAC activity

Same assay, conditions: Zn2+ (1 mM) as agonist, TEVC

Compound	Fitted inhibition range, Inhibition (%)	Hill coefficient nH ± S.E.M.
CC(C)(C)c1csc(NC(=O)c2cc(Br)ccc2Cl)n1 [2b]	88 ± 3	−1.2 ± 0.12
COC(=O)c1sc(NC(=O)c2cccc(I)c2)nc1C [4c]	78 ± 3	−0.89 ± 0.06

Same assay, conditions: Zn2+ (1 mM) as agonist, TEVC, steady-state current; read-out: IC50

Compound	pIC50
O=C(Nc1ncc([N+](=O)[O-])s1)c1cccc(Br)c1 [3f]	~4.70

Same assay, conditions: Zn2+ (1 mM) as agonist, TEVC, steady-state current; read-out: pIC50 ± S.E.M. (converted)

Compound	IC50 [µM]
CC(C)(C)c1csc(NC(=O)c2cc(Br)ccc2Cl)n1 [2b]	1.32
COC(=O)c1sc(NC(=O)c2cccc(I)c2)nc1C [4c]	1.02

Same assay, conditions: Zn2+ (1 mM), full concentration-inhibition curves

Compound	Extent of inhibition of Zn2+-induced responses (in words)
CC(C)(C)c1csc(NC(=O)c2cc(Br)ccc2Cl)n1 [2b]	completely
COC(=O)c1sc(NC(=O)c2cccc(I)c2)nc1C [4c]	completely
